Assay results reported in patent US20260183369A1, “CHEMERIN-CONTAINING FORMULATION FOR TREATING DRY EYE DISEASE” (OKYO Pharma Limited, priority 2022, published 2026).
Where two headings read alike, the source gives them in different places. Square brackets hold non-standard residues; d marks the D form. Peptide text beside a SMILES is read from it. * marks the point of attachment. PEG8 = NCCOCCOCCOCCOCCOCCOCCOCCOCCC(=O)O; Palmitoyl = CCCCCCCCCCCCCCCC(=O)*; Tic = O=C(O)[C@@H]1Cc2ccccc2CN1

Experiment: solubility and pH stability of OK-101 in sodium phosphate buffer
Assay type: physicochemical
Conditions: read-out: concentration of OK-101 observed (solubility)
Protocol: The solubility and pH stability of OK-101 at a target concentration of 0.05% w/v, was tested in either 50 mM or 100 mM sodium phosphate buffer. For each concentration of sodium phosphate buffer, the solubility and pH stability were determined in three separate buffer batches, each with a different starting pH.

## CCCCCCCCCCCCCCCC(=O)NCCOCCOCCOCCOCCOCCOCCOCCOCCC(=O)NCC(=O)NCC(=O)N[C@H](Cc1ccc(O)cc1)C(=O)N[C@@H](Cc1ccccc1)C(=O)N[C@@H](CC(C)C)C(=O)N1CCC[C@H]1C(=O)N[C@H](CO)C(=O)N[C@@H](CCC(N)=O)C(=O)N[C@@H](Cc1ccccc1)C(=O)N[C@H](C)C(=O)N1Cc2ccccc2C[C@H]1C(=O)N[C@@H](CO)C(=O)O [OK-101] ({Palmitoyl-PEG8}-GG[dY]FLP[dS]QF[dA][Tic]S-OH)
Three batches of 50 mM sodium phosphate buffer
  solubility: > 25 mg/mL
Three batches of 100 mM sodium phosphate buffer
  solubility: > 30 mg/mL
